Test results published in patent publication US20100173968A1, “SUB-TYPE SELECTIVE AZABICYCLOALKANE DERIVATIVES” (TARGACEPT, INC., priority 2007, published 2010).
Read-outs that look alike come from different tables or passages of the source.

What was measured:
[1] = NOR (novel object recognition) task; assay type: in vivo; conditions: orally, in rats
Experimental: Certain exemplified compounds were assessed in the NOR (novel object recognition) task. This illustrates efficacy and potency of the compounds of the present invention in treating cognitive deficits, attention disorders, and dementias, and the potential of these compounds for human therapy.

α4β2 nAChR Subtype = α4β2 nAChR Subtype (Rattus norvegicus, UniProt P09483+P12390); test: Radioligand binding at α4β2 nAChR subtype, inhibition of [3H]nicotine binding, rat cerebral cortex membranes; conditions: [3H]nicotine 5 nM
Chain of α4β2 nAChR Subtype (P09483 31-630): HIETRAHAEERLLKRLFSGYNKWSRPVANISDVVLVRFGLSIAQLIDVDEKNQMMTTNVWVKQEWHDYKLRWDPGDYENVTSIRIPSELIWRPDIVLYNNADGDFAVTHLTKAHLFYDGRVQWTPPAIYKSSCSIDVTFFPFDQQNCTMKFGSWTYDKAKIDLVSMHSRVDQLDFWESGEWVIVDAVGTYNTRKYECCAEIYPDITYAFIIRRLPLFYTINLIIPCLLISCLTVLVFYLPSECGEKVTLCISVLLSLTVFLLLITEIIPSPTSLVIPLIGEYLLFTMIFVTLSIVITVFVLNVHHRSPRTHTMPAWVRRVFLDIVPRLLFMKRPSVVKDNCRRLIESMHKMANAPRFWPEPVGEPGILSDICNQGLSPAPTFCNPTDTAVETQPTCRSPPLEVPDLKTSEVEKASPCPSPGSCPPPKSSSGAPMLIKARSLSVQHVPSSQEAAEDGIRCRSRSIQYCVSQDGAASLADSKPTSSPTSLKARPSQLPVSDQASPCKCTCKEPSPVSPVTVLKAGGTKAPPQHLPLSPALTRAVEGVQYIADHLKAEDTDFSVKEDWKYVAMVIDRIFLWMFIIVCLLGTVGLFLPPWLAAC
Chain of α4β2 nAChR Subtype (P12390 25-500): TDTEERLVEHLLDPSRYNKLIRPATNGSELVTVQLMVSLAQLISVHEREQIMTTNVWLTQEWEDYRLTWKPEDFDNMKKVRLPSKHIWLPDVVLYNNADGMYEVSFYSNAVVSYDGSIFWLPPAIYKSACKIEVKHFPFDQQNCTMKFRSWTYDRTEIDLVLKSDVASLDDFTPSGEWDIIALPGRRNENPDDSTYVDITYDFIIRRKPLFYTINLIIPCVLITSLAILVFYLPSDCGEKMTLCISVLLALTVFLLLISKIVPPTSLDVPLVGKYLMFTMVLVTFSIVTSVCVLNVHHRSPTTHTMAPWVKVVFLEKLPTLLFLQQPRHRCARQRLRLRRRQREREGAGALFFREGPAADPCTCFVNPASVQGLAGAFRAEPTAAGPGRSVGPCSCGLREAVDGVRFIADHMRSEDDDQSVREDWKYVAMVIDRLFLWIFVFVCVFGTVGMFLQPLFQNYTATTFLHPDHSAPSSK
Experimental: The [^3H]nicotine (Specific Activity=81.5 Ci/mmol) was obtained from NEN Research Products. The binding of [^3H]nicotine was measured using a 3 h incubation at 4° C. […] Each filter was washed with ice-cold buffer (3×1 mL).
Each concentration was replicated in triplicate.

α7 nAChR Subtype = α7 nAChR Subtype (Rattus norvegicus, UniProt Q05941); test: Radioligand binding at α7 nAChR subtype, inhibition of [3H]MLA binding, rat hippocampus membranes (HTS at 5 μM, then Ki); conditions: for inhibition at 5 µM: read-out: α7 HTS outcome (α7 Ki)
Chain of α7 nAChR Subtype (Q05941 23-502): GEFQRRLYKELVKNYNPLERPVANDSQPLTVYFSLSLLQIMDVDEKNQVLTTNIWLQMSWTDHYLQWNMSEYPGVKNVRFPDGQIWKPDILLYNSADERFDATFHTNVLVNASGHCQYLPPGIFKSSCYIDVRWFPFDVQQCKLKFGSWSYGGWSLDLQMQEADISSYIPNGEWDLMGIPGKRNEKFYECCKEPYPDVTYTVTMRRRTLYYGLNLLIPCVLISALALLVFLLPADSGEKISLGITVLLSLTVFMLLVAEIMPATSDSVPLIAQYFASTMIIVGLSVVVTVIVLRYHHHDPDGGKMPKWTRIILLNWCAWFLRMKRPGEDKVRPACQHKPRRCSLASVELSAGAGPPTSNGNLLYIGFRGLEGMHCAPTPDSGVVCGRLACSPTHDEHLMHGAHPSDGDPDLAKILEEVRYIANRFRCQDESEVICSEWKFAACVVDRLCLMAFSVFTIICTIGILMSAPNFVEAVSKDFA

Human α4β2 = Human α4β2 (Homo sapiens, UniProt P17787+P43681); test: Binding at human α4β2 (Ki); method not described
Chain of Human α4β2 (P43681 29-627 limits assumed): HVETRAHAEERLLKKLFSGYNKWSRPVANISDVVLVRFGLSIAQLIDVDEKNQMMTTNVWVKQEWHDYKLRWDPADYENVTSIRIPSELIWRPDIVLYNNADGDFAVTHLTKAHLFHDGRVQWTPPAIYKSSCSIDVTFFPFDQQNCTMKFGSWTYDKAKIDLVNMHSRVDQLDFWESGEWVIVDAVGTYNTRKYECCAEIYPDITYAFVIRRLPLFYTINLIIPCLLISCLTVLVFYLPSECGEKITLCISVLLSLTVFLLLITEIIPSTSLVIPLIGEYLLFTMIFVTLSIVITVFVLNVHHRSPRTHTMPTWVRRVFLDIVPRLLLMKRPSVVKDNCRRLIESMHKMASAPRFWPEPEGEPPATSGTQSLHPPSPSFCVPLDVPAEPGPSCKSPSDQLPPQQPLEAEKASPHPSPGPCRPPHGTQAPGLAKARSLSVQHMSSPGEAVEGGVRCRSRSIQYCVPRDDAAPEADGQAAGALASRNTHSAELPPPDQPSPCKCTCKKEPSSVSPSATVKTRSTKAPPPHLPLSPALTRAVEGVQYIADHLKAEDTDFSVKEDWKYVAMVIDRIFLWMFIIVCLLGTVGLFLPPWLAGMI
Chain of Human α4β2 (P17787 26-502): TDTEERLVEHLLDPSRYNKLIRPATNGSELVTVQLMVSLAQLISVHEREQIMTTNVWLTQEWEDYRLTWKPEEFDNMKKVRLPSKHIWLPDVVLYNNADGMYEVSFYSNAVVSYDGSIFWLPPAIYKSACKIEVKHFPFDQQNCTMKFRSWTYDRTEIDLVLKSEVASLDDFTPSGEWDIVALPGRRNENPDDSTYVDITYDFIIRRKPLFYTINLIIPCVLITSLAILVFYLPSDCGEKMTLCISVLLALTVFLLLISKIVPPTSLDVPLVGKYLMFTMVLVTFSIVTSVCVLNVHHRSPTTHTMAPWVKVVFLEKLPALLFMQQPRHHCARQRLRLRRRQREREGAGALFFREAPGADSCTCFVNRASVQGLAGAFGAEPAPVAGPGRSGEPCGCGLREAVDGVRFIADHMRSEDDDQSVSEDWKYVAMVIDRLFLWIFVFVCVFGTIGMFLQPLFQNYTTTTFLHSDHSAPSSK

[2] = read-out: α7 Ki, [3H]MLA 5 nM, rat hippocampus

COC(=O)C1C[C@H]2CNC[C@H]2C1 (mixture of isomers) [Compound A, methyl 3-azabicyclo[3.3.0]octane-7-carboxylate]
activity in the NOR task (recognition index) ([1]; dose of 0.1 mg/kg, FIG. 1): active
Ki (α4β2 nAChR Subtype; read-out: Rat α4β2 Ki): 20 nM
Ki (α7 nAChR Subtype): > 10 µM
Ki (Human α4β2): 8 nM

CNC(=O)C1CC2CNCC(C2)C1 (centres unmarked) [Compound B, N-methyl-3-azabicyclo[3.3.1]nonane-7-carboxamide]
activity in the NOR task (recognition index) ([1]; dose of 1 mg/kg, FIG. 2): active
Ki (α4β2 nAChR Subtype; read-out: Rat α4β2 Ki): 6 nM
Ki (α7 nAChR Subtype): > 10 µM
Ki (Human α4β2): 2 nM

O=C(C1C[C@H]2CNC[C@H]2C1)N1CC=CCC1 (mixture of isomers) [(3-azabicyclo[3.3.0]oct-7-yl)(2,3,6-trihydropyridin-1-yl)methanone]
Ki (α4β2 nAChR Subtype; read-out: Rat α4β2 Ki): 46.3 nM
inhibition at 5 µM (α7 nAChR Subtype): < 50%
Ki (Human α4β2): 28.4 nM

O=C(OCC1CC1)C1C[C@H]2CNC[C@H]2C1 (mixture of isomers) [cyclopropylmethyl 3-azabicyclo[3.3.0]octane-7-carboxylate]
Ki (α4β2 nAChR Subtype; Rat α4β2 Ki): 62.1 nM
Ki (α7 nAChR Subtype): > 10 µM
Ki (Human α4β2): 40.3 nM

O=C(C1CCCCC1)C1C[C@H]2CNC[C@H]2C1 (mixture of isomers) [cyclohexyl(3-azabicyclo[3.3.0]oct-7-yl)methanone]
Ki (α4β2 nAChR Subtype; read-out: Rat α4β2 Ki): 192 nM
inhibition at 5 µM (α7 nAChR Subtype): < 50%
Ki (Human α4β2): 44.2 nM

NC(=O)C1C[C@H]2CNC[C@H]2C1 (mixture of isomers) [3-azabicyclo[3.3.0]octane-7-carboxamide]
Ki (α4β2 nAChR Subtype; read-out: Rat α4β2 Ki): 394 nM
Ki (α7 nAChR Subtype): 8.28 µM
Ki (Human α4β2): 320 nM

O=C(c1ccco1)[C@H]1C[C@H]2CNC[C@H]2C1 [cis-2-furanyl(3-azabicyclo[3.3.0]oct-7-yl)methanone]
Ki (α4β2 nAChR Subtype; Rat α4β2 Ki): 11 nM
inhibition at 5 µM (α7 nAChR Subtype): < 50%
Ki (Human α4β2): 13.2 nM

O=C(OCCF)C1C[C@H]2CNC[C@H]2C1 (mixture of isomers) [2-fluoroethyl 3-azabicyclo[3.3.0]octane-7-carboxylate]
Ki (α4β2 nAChR Subtype; read-out: Rat α4β2 Ki): 55.1 nM
inhibition at 5 µM (α7 nAChR Subtype): < 50%
Ki (Human α4β2): 102 nM

CC(C)(C)C(=O)C1C[C@H]2CNC[C@H]2C1 (mixture of isomers) [1-(3-azabicyclo[3.3.0]oct-7-yl)-2,2-dimethyl-1-propanone]
Ki (α4β2 nAChR Subtype; read-out: Rat α4β2 Ki): 21.4 nM
inhibition at 5 µM (α7 nAChR Subtype): < 50%
Ki (Human α4β2): 4.2 nM

CCC(C)NC(=O)C1CC2CNCC(C2)C1 (centres unmarked) [N-sec-butyl-3-azabicyclo[3.3.1]nonane-7-carboxamide]
Ki (α4β2 nAChR Subtype; read-out: Rat α4β2 Ki): 272 nM
Ki (α7 nAChR Subtype; [2]): > 10 µM
Ki (Human α4β2): 42.8 nM

C/C=C/C(=O)C1C[C@H]2CNC[C@H]2C1 (stereo partly drawn) [trans-1-(3-azabicyclo[3.3.0]oct-7-yl)-2-buten-1-one]
Ki (α4β2 nAChR Subtype; Rat α4β2 Ki): 15.4 nM
Ki (α7 nAChR Subtype): > 10 µM
Ki (Human α4β2): 29.7 nM

O=C(NC1CCCC1)C1CC2CNCC(C2)C1 (centres unmarked) [N-cyclopentyl-3-azabicyclo[3.3.1]nonane-7-carboxamide]
Ki (α4β2 nAChR Subtype; read-out: Rat α4β2 Ki): 102 nM
inhibition at 5 µM (α7 nAChR Subtype): < 50%
Ki (Human α4β2): 26.8 nM

CN(C)C(=O)[C@@H]1C[C@H]2CNC[C@H]2C1 [trans-N,N-dimethyl-3-azabicyclo[3.3.0]octane-7-carboxamide]
Ki (α4β2 nAChR Subtype; Rat α4β2 Ki): 28.7 nM
inhibition at 5 µM (α7 nAChR Subtype): < 50%
Ki (Human α4β2): 114 nM

NC(=O)C1CC2CNCC(C2)C1 (centres unmarked) [3-azabicyclo[3.3.1]nonane-7-carboxamide]
Ki (α4β2 nAChR Subtype; read-out: Rat α4β2 Ki): 40.5 nM
Ki (α7 nAChR Subtype): > 10 µM
Ki (Human α4β2): 76.9 nM

O=C(Nc1ccc(F)cc1)C1CC2CNCC(C2)C1 (centres unmarked) [N-(4-fluorophenyl)-3-azabicyclo[3.3.1]nonane-7-carboxamide]
Ki (α4β2 nAChR Subtype; read-out: Rat α4β2 Ki): 92.2 nM
inhibition at 5 µM (α7 nAChR Subtype): < 50%
Ki (Human α4β2): 32.1 nM

CC(CF)OC(=O)C1C[C@H]2CNC[C@H]2C1 (mixture of isomers) [1-fluoroprop-2-yl 3-azabicyclo[3.3.0]octane-7-carboxylate]
Ki (α4β2 nAChR Subtype; read-out: Rat α4β2 Ki): 271 nM
inhibition at 5 µM (α7 nAChR Subtype): < 50%
Ki (Human α4β2): 112 nM

C#CCC(C)OC(=O)C1C[C@H]2CNC[C@H]2C1 (mixture of isomers) [pent-4-yn-2-yl 3-azabicyclo[3.3.0]octane-7-carboxylate]
Ki (α4β2 nAChR Subtype; read-out: Rat α4β2 Ki): 144 nM
inhibition at 5 µM (α7 nAChR Subtype): < 50%
Ki (Human α4β2): 68.7 nM

CN(C)C(=O)C1CC2CNCC(C2)C1 (centres unmarked) [N,N-dimethyl-3-azabicyclo[3.3.1]nonane-7-carboxamide]
Ki (α4β2 nAChR Subtype; Rat α4β2 Ki): 78 nM
Ki (α7 nAChR Subtype): > 10 µM
Ki (Human α4β2): 54 nM

CC(C)NC(=O)C1CC2CNCC(C2)C1 (centres unmarked) [N-isopropyl-3-azabicyclo[3.3.1]nonane-7-carboxamide]
Ki (α4β2 nAChR Subtype; read-out: Rat α4β2 Ki): 82 nM
inhibition at 5 µM (α7 nAChR Subtype): < 50%
Ki (Human α4β2): 31 nM

O=C(Nc1ccccc1F)C1CC2CNCC(C2)C1 (centres unmarked) [N-(2-fluorophenyl)-3-azabicyclo[3.3.1]nonane-7-carboxamide]
Ki (α4β2 nAChR Subtype; read-out: Rat α4β2 Ki): 63 nM
inhibition at 5 µM (α7 nAChR Subtype): < 50%
Ki (Human α4β2): 24.1 nM

O=C(c1ccncc1)C1C[C@H]2CNC[C@H]2C1 (mixture of isomers) [pyridin-4-yl(3-azabicyclo[3.3.0]oct-7-yl)methanone]
Ki (α4β2 nAChR Subtype; read-out: Rat α4β2 Ki): 43 nM
inhibition at 5 µM (α7 nAChR Subtype): < 50%
Ki (Human α4β2): 36.4 nM

N#Cc1ccoc1C(=O)[C@H]1C[C@H]2CNC[C@H]2C1 [cis-3-cyanofuran-2-yl(3-azabicyclo[3.3.0]oct-7-yl)methanone]
Ki (α4β2 nAChR Subtype; read-out: Rat α4β2 Ki): 14 nM
inhibition at 5 µM (α7 nAChR Subtype): < 50%
Ki (Human α4β2): 25.7 nM

O=C(C1CCCC1)C1C[C@H]2CNC[C@H]2C1 (mixture of isomers) [cyclopentyl(3-azabicyclo[3.3.0]oct-7-yl)methanone]
Ki (α4β2 nAChR Subtype; read-out: Rat α4β2 Ki): 15.9 nM
inhibition at 5 µM (α7 nAChR Subtype): < 50%
Ki (Human α4β2): 7.5 nM

CCC(C)C(=O)C1C[C@H]2CNC[C@H]2C1 (mixture of isomers) [1-(3-azabicyclo[3.3.0]oct-7-yl)-2-methyl-1-butanone]
Ki (α4β2 nAChR Subtype; read-out: Rat α4β2 Ki): 11.1 nM
inhibition at 5 µM (α7 nAChR Subtype): < 50%
Ki (Human α4β2): 3.3 nM

Cc1ccc(C(=O)C2C[C@H]3CNC[C@H]3C2)o1 (mixture of isomers) [5-methylfuran-2-yl(3-azabicyclo[3.3.0]oct-7-yl)methanone]
Ki (α4β2 nAChR Subtype; read-out: Rat α4β2 Ki): 74.3 nM
inhibition at 5 µM (α7 nAChR Subtype): < 50%
Ki (Human α4β2): 37 nM

O=C(OC1CCOCC1)C1C[C@H]2CNC[C@H]2C1 (mixture of isomers) [tetrahydropyran-4-yl 3-azabicyclo[3.3.0]octane-7-carboxylate]
Ki (α4β2 nAChR Subtype; read-out: Rat α4β2 Ki): 68.5 nM
inhibition at 5 µM (α7 nAChR Subtype): < 50%
Ki (Human α4β2): 146 nM

O=C(C1C[C@H]2CNC[C@H]2C1)N1CCCCO1 (mixture of isomers) [(3-azabicyclo[3.3.0]oct-7-yl)(1-oxazinan-2-yl)methanone]
Ki (α4β2 nAChR Subtype; read-out: Rat α4β2 Ki): 17.4 nM
Ki (α7 nAChR Subtype; [2]): ≥ 10 µM
Ki (Human α4β2): 5.5 nM

O=C(NC1CC=CC1)C1CC2CNCC(C2)C1 (centres unmarked) [N-(3-cyclopentenyl)-3-azabicyclo[3.3.1]nonane-7-carboxamide]
Ki (α4β2 nAChR Subtype; read-out: Rat α4β2 Ki): 45.3 nM
inhibition at 5 µM (α7 nAChR Subtype): < 50%
Ki (Human α4β2): 24.3 nM

O=C(C1CC2CNCC(C2)C1)N1CCOCC1 (centres unmarked) [4-morpholinyl(3-azabicyclo[3.3.1]non-7-yl)methanone]
Ki (α4β2 nAChR Subtype; read-out: Rat α4β2 Ki): 62.5 nM
inhibition at 5 µM (α7 nAChR Subtype): < 50%
Ki (Human α4β2): 22.5 nM

CN(C)C(=O)C1=C[C@@H]2CNC[C@@H]2C1 [N,N-dimethyl-3-azabicyclo[3.3.0]oct-6-ene-7-carboxamide]
Ki (α4β2 nAChR Subtype; Rat α4β2 Ki): 60 nM
Ki (α7 nAChR Subtype): > 10 µM
Ki (Human α4β2): 164 nM

O=C(OCC1CCOC1)C1C[C@H]2CNC[C@H]2C1 (mixture of isomers) [(tetrahydrofuran-3-yl)methyl 3-azabicyclo[3.3.0]octane-7-carboxylate]
Ki (α4β2 nAChR Subtype; read-out: Rat α4β2 Ki): 111 nM
inhibition at 5 µM (α7 nAChR Subtype): < 50%
Ki (Human α4β2): 47.7 nM

O=C(NCCCF)C1CC2CNCC(C2)C1 (centres unmarked) [N-(3-fluoropropyl)-3-azabicyclo[3.3.1]nonane-7-carboxamide]
Ki (α4β2 nAChR Subtype; read-out: Rat α4β2 Ki): 44.7 nM
inhibition at 5 µM (α7 nAChR Subtype): < 50%
Ki (Human α4β2): 23.2 nM

O=C(NCc1ccco1)C1C[C@H]2CNC[C@H]2C1 (mixture of isomers) [N-(2-furanylmethyl)-3-azabicyclo[3.3.0]octane-7-carboxamide]
Ki (α4β2 nAChR Subtype; Rat α4β2 Ki): 272 nM
Ki (α7 nAChR Subtype): 74.9 µM
Ki (Human α4β2): 302 nM

O=C(NCc1ccccc1)C1CC2CNCC(C2)C1 (centres unmarked) [N-benzyl-3-azabicyclo[3.3.1]nonane-7-carboxamide]
Ki (α4β2 nAChR Subtype; read-out: Rat α4β2 Ki): 885 nM
inhibition at 5 µM (α7 nAChR Subtype): < 50%
Ki (Human α4β2): 9 nM

O=C(OC1CCOC1)C1C[C@H]2CNC[C@H]2C1 (some centres unmarked) [tetrahydrofuran-3-yl 3-azabicyolo[3.3.0]octane-7-carboxylate]
Ki (α4β2 nAChR Subtype; read-out: Rat α4β2 Ki): 129 nM
Ki (α7 nAChR Subtype): > 10 µM
Ki (Human α4β2): 120 nM
